The target in assay [1] is Urokinase-type plasminogen activator (Homo sapiens, UniProt P00749). Description: Inhibition of human uPA using Bzbeta-Ala-Gly-Arg-pNA as substrate.
Assay [2] is described as follows: Inhibition of recombinant human airway trypsin-like protease by fluorescence assay.
In assay [3] the target is T1, Suppressor of tumorigenicity 14 protein (Homo sapiens, UniProt Q9Y5Y6).
T1 sequence (Q9Y5Y6 whole entry): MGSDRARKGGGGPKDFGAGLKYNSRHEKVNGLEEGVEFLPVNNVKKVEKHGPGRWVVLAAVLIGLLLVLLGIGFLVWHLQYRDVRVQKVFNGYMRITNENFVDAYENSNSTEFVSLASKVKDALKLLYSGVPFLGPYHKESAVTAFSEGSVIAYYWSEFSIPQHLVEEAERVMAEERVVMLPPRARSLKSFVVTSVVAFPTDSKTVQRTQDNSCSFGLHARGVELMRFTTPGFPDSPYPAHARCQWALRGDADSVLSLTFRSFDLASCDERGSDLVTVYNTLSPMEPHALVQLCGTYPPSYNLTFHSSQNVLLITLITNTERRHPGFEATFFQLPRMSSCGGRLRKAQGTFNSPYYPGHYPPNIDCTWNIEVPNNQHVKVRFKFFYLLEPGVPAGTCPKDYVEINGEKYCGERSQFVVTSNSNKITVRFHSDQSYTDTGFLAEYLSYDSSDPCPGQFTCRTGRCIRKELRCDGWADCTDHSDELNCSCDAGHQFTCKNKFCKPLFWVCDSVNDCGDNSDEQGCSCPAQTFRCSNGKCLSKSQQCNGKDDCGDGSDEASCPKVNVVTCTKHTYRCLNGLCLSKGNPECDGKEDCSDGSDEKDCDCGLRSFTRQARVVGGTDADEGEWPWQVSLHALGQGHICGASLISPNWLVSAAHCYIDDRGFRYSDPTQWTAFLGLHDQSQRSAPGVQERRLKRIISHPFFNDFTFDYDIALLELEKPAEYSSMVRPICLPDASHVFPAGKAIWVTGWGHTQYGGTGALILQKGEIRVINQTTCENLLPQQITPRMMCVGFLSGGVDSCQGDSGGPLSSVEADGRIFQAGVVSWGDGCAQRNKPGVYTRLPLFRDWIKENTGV
Description: Inhibition of matriptase (unknown origin) using MeSO2-D-Cha-Gly-Arg-pNA as substrate.

The target of assay [4] is Coagulation factor X (Homo sapiens, UniProt P00742). Description: Inhibition of human factor 10a using CH3OCO-D-Cha-Gly-Arg-pNA as substrate.
Sequence of Coagulation factor X (P00742 41-179 limits assumed): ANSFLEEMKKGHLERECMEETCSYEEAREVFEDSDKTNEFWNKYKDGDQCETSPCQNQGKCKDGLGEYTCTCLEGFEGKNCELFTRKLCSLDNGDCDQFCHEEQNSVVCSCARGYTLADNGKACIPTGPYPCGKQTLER
Sequence of Coagulation factor X (P00742 235-488 limits assumed): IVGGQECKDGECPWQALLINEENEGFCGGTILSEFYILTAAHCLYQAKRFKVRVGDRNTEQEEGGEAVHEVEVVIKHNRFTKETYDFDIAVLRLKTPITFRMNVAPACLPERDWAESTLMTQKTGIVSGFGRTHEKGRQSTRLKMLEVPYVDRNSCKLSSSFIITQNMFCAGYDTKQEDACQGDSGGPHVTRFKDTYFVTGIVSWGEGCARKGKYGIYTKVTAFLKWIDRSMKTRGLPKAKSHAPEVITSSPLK
Assay [5] deals with T2, Transmembrane protease serine 6 (Homo sapiens, UniProt Q8IU80).
T2 sequence (Q8IU80 whole entry): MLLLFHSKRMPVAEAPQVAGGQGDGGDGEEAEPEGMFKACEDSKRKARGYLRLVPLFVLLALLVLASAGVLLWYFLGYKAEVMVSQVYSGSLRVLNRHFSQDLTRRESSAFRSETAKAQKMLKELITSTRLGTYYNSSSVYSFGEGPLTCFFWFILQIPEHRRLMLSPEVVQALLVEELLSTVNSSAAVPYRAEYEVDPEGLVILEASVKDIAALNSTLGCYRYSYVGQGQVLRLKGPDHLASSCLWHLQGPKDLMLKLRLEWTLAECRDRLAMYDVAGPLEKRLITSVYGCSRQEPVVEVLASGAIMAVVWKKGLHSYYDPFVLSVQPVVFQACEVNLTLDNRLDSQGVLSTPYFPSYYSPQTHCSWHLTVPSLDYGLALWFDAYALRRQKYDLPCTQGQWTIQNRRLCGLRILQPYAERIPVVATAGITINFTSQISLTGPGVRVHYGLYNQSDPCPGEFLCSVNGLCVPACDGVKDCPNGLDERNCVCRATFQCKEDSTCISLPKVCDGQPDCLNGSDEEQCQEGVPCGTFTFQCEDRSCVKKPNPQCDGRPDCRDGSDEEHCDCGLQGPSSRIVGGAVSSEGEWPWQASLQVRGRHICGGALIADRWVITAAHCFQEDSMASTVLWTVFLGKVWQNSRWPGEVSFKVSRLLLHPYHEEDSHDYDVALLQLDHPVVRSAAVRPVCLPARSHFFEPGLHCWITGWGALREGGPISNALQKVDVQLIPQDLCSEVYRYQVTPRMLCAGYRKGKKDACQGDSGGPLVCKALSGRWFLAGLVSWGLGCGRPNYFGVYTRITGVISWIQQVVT
Description: Inhibition of matriptase-2 (unknown origin) expressed in HEK293 cells using ln-Ala-Arg-a-Arg-para-nitroanilide as substrate by UV-vis spectrophotometry. It is filed as cell-based.

For assay [6], the target named is Prothrombin (Bos taurus, UniProt P00735). Description: Inhibition of bovine thrombin using MeSO2-D-Cha-Gly-Arg-pNA as substrate.
Assay [7] can be described thus: Selectivity ratio of Ki for bovine thrombin to Ki for matriptase (unknown origin).
In assay [8] the test system is HEK293. Description: Selectivity ratio of Ki for matriptase-2 (unknown origin) expressed in HEK293 cells to Ki for matriptase (unknown origin). Type of assay: cell-based. The settings on record: Homo sapiens.
For assay [9], the species on record is Homo sapiens. Description: Selectivity ratio of Ki for recombinant human airway trypsin-like protease to Ki for matriptase (unknown origin).
The species named for assay [10] is Homo sapiens. Description: Selectivity ratio of Ki for human uPA to Ki for matriptase (unknown origin).

Molecules are shown by their SMILES. pKi: −log10 of the molar value.

Take `CNC(=O)NCCC1CCN(C(=O)[C@H](Cc2cccc(C(=N)N)c2)NS(=O)(=O)c2cccc(-c3ccc(OC)cc3OC)c2)CC1`: the negative-log Ki (pKi) in assay [1] was 5.36; in assay [2], 6.96; in assay [3], 8.74; in assay [4], 7.29; in assay [5] it was 6.74; in assay [6], 9.10.

`COc1ccc(-c2cccc(S(=O)(=O)N[C@@H](Cc3cccc(C(=N)N)c3)C(=O)N3CCC(NC(=O)NC4CCCCC4)CC3)c2)c(OC)c1`: the pKi in assay [1] is 4.73; in assay [2], 6.08; in assay [3], 8.57; in [4], 7.96; in assay [5] it was 5.85; in assay [6], 5.91. Besides, in assay [7], the Ratio Ki is above 500.

Turning to `CNC(=O)NCCC1CCN(C(=O)[C@H](Cc2cccc(C(=N)N)c2)NS(=O)(=O)c2cccc(-c3ccc(Cl)cc3Cl)c2)CC1`, the pKi in [1] was 5.47; in [2], 6.77; in assay [3], 9.05; in assay [4], 7.54; in [5], 7.14; in assay [6], 9.70.

In the case of `N=C(N)c1cccc(C[C@H](NS(=O)(=O)c2cccc(-c3ccc(Cl)cc3Cl)c2)C(=O)N2CCC(NC(=O)NC3CCCCC3)CC2)c1`, the negative logarithm of the Ki (pKi) is 4.74 in assay [1]; 5.57 in [2]; 8.29 in [3]; 7.70 in assay [4]; 6.03 in assay [5]; 6.20 in assay [6]. Also, the Ratio Ki in assay [7] is above 500.

Regarding `COc1ccc(-c2cccc(S(=O)(=O)N[C@@H](Cc3cccc(C(=N)N)c3)C(=O)N3CCC(CCN)CC3)c2)c(OC)c1`, the Ratio Ki in [8], in assay [9] and in assay [10] was 20 throughout. For the same compound, the negative logarithm of the Ki (pKi) in assay [3] is 9.00; in assay [4], 6.96; in [5], 6.51; in [6], 7.52.

These data come from ChEMBL document CHEMBL3217540, “New 3-amidinophenylalanine-derived inhibitors of matriptase” (Medchemcomm, 2012).
